The record followed here is patent US20070135453A1, “6-(2,4,6-Trihalophenyl)triazolopyrimidines, their preparation and their use for controlling harmful fungi, and compositions comprising these compounds” (BASF Aktiengesellschaft, priority 2003, published 2007).

For assay [1], the system named is Pyrenophora teres. Kind of assay: Activity against net blotch of barley caused by Pyrenophora teres, protective application. In kind it is in vivo. As to conditions: 250 ppm, protective spray, assessed after 6 days, untreated plants 90% infected. How it is done:
(§1) The active compounds were prepared as a stock solution with 25 mg of active compound which was made up to 10 ml using a mixture of acetone and/or DMSO and the emulsifier Uniperol® EL (wetting agent having emulsifying and dispersing action based on ethoxylated alkylphenols) in a volume ratio of solvent/emulsifier of 99 to 1.
(§2) The mixture was then made up with water to 100 ml. This stock solution was diluted with the solvent/emulsifier/water mixture described to the concentration of active compounds stated below.
Use Example 1—Activity Against Net blotch of Barley Caused by Pyrenophora teres, Protective Application
Leaves of potted barley seedlings of the cultivar “Hanna” were sprayed to runoff point with an aqueous suspension having the concentration of active compounds stated below. 24 hours after the spray coating had dried on, the test plants were inoculated with an aqueous spore suspension of Pyrenophora [syn. Drechslera]teres, the net blotch pathogen. The test plants were then placed in a greenhouse at temperatures between 20 and 24° C. and 95 to 100% relative atmospheric humidity. After 6 days, the extent of the development of the disease was determined visually in % infection of the entire leaf area.

Assay [2] relates to Botrytis cinerea. The assay can be described thus: Activity against gray mold on bell-pepper leaves caused by Botrytis cinerea, protective application. In kind it is in vivo. As to conditions: 250 ppm, protective spray, assessed after 5 days, untreated plants 100% infected. Here is the method:
as §1, §2
Use Example 2—Activity Against Gray Mold on Bell-Pepper Leaves Caused by Botrytis cinerea, Protective Application
Bell-pepper seedlings of the cultivar “Neusiedler Ideal Elite” were, after 2 to 3 leaves were well developed, sprayed to runoff point with an aqueous suspension having the concentration of active compounds stated below. The next day, the treated plants were inoculated with a spore suspension of Botrytis cinerea which contained 1.7×10^6 spores/ml in a 2% aqueous biomold solution. The test plants were then placed in a dark acclimatized chamber at 22 to 24° C. and high atmospheric humidity. After 5 days, the extent of the fungal infection on the leaves could be determined visually in %.

In the case of `CC1CCN(c2c(-c3c(Cl)cc(Cl)cc3Cl)c(C#N)nc3ncnn23)CC1` [Example 1, 5-cyano-6-(2,4,6-trichlorophenyl)-7-(4-methylpiperidinyl)-1,2,4-triazolo[1,5a]pyrimidine], the “infection of the entire leaf area” value in assay [1] is given as “about 1%”. Moreover, the “fungal infection on the leaves” value in assay [2] was “about 7%”.
